According to US20240300893A1, “SMALL MOLECULE COMPOUNDS TARGETING SRSF6 PROTEIN AND THEIR PREPARATION METHODS AND APPLICATIONS” (CHINA PHARMACEUTICAL UNIVERSITY, priority 2021, published 2024):
Where two headings read alike, the source gives them in different places.

What was measured:
[1] = tested on: SW620 cells; experiment: Inhibitory effect on SW620 cells (cell survival rate at 48 h); assay type: cell-based; settings: read-out: IC50, inhibitory effects on SW620 cells
Description: (§1) Compound I was prepared with the same concentration gradient for primary screening, and compounds with lower IC50 than indacaterol were screened for secondary screening with concentration gradients of 1, 2, 4, and 8 μM.
(§2) Both rounds of screening were performed on the colorectal cancer cell line SW620 with an initial cell number of 5000 cells per well, and the cell survival rate at 48 h was determined directly to determine the IC50 of the compound.
(§3) Cell viability=[(reading of experimental group−reading of blank group)/(reading of control group−reading of blank group)]×100%.

[2] = tested on: RKO cells; experiment: Inhibitory effect on RKO cells (cell survival rate at 48 h); assay type: cell-based, Human; settings: procedures as for SW620, 48 h, read-out: IC50, inhibitory effects on RKO cells
Description: as §1, §2, §3

[3] = tested on: HT29 cells; experiment: Inhibitory effect on HT29 cells (cell survival rate at 48 h); assay type: cell-based, Human; settings: HT29, procedures as for SW620, 48 h, read-out: IC50, inhibitory effects on HT29 cells
Description: as §1, §2, §3

[4] = target: T1, SRSF6 protein (Homo sapiens, UniProt Q13247); experiment: SRSF6 protein thermal shift assay; assay type: binding; settings: for migration of SRSF6 protein compared with DMSO: in words
T1 sequence (Q13247 1-183): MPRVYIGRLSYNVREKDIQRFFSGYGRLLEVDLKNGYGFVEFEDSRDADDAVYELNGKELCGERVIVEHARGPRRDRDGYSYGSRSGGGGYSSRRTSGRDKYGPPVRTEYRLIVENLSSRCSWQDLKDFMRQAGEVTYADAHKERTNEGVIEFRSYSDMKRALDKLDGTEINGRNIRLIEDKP
Text: SRSF proteins play an important role in the regulation of gene expression, including constitutive splicing, alternative splicing, mRNA nuclear export and translation. SRSF proteins can be divided into two groups according to the number of RRM domains. Among them, SRSF6 has RRM1 and RRM2 domains. The RRM1 domain contains conserved sequences of RNP-1 and RNP-2, which can bind to related mRNAs. However, the RRM2 domain contains the evolutionarily conserved SWQDLKD heptapeptide sequence. RRM1 and RRM2 domains play irreplaceable roles in the specific recognition of alternative splice sites. Overexpression of SRSF6 induced colorectal carcinogenesis by binding to cell adhesion factor ZO-1, while indacaterol was validated to inhibit tumor development. Therefore, RRM1 and RRM2 domains of SRSF6 were extracted and the binding ability of compound I1 to SRSF6 was investigated by protein thermal shift assay using LYW1 as a reference.
We used DMSO as the blank group, and 56.5 μM SRSF6 protein was added to the PCR tube with LYW1 and I1 at a concentration of 1:10, respectively. After TS dye was added in the dark, the thermal migration assay was performed.

[5] = Homo sapiens, SW-620, 48 h, SW620, 5000 cells per well

Structure (SMILES): CCc1cc2c(cc1CC)CC(NC[C@@H](O)c1ccc(OCc3ccc(F)c(F)c3)c3[nH]c(=O)ccc13)C2 [Compound I10, (S)-5-(2-((5,6-diethyl-2,3-dihydro-1H-inden-2-yl)amino)-1-hydroxyethyl)-8-((3,4-difluorobenzyl)oxy)quinolin-2(1H)-one]
- IC50 [1, 5]: 4.18 µM

Structure (SMILES): CCc1cc2c(cc1CC)CC(NC[C@@H](O)c1ccc(OCc3cccc(F)c3)c3[nH]c(=O)ccc13)C2 [Compound I6, (S)-5-(2-((5,6-diethyl-2,3-dihydro-1H-inden-2-yl)amino)-1-hydroxyethyl)-8-((3-fluorobenzyl)oxy)quinolin-2(1H)-one]
- IC50 [1, 5]: 3.06 µM

Structure (SMILES): CCc1cc2c(cc1CC)CC(NC[C@H](O)c1ccc(O)c3[nH]c(=O)ccc13)C2 [Indacaterol, reference compound]
- IC50 [1, 5]: 20 to 25 µM
- IC50 ([1]; SW620, 5000 cells per well): 23.1 µM
- IC50 ([2]; Homo sapiens, 48 h): 10 to 15 µM
- IC50 [2]: 12.8 µM
- IC50 [3]: 12.7 µM
- IC50 ([3]; Homo sapiens, HT-29, 48 h): 10 to 15 µM

Structure (SMILES): CCc1cc2c(cc1CC)CC(NC[C@H](O)c1ccc(OCc3ccccc3)c3[nH]c(=O)ccc13)C2 [LYW1, reference compound]
- IC50 [1, 5]: 3.54 µM
- IC50 ([2]; Homo sapiens, 48 h): 2.03 µM
- IC50 ([3]; Homo sapiens, HT-29, 48 h): 2.43 µM
- migration of SRSF6 protein compared with DMSO [4]: negative migration

Structure (SMILES): CCc1cc2c(cc1CC)CC(NC[C@@H](O)c1ccc(OCc3ccc(F)cc3)c3[nH]c(=O)ccc13)C2 [Compound I1, (S)-5-(2-((5,6-diethyl-2,3-dihydro-1H-inden-2-yl)amino)-1-hydroxyethyl)-8-((4-fluorobenzyl)oxy)quinolin-2(1H)-one]
- IC50 ([1]; Homo sapiens, SW-620, SW620, 5000 cells per well): 3.12 µM
- IC50 ([2]; Homo sapiens): 1.42 µM
- IC50 ([3]; Homo sapiens, HT-29): 1.42 µM
- binding effect with SRSF6 protein ([4]; compared with LYW1, in words): better binding effect
- migration of SRSF6 protein compared with DMSO [4]: negative migration

Structure (SMILES): CCc1cc2c(cc1CC)CC(NC[C@@H](O)c1ccc(OCc3ccc(C)cc3)c3[nH]c(=O)ccc13)C2 [Compound I4, (S)-5-(2-((5,6-diethyl-2,3-dihydro-1H-inden-2-yl)amino)-1-hydroxyethyl)-8-((4-methylbenzyl)oxy)quinolin-2(1H)-one]
- IC50 [1, 5]: 2.9 µM

Structure (SMILES): CCc1cc2c(cc1CC)CC(NC[C@H](O)c1ccc(OCc3ccc(C)cc3)c3[nH]c(=O)ccc13)C2 [Compound I5, (R)-5-(2-((5,6-diethyl-2,3-dihydro-1H-inden-2-yl)amino)-1-hydroxyethyl)-8-((4-methylbenzyl)oxy)quinolin-2(1H)-one]
- IC50 [1, 5]: 2.98 µM

Structure (SMILES): CCc1cc2c(cc1CC)CC(NC[C@H](O)c1ccc(OCc3cccc(F)c3)c3[nH]c(=O)ccc13)C2 [Compound I7, (R)-5-(2-((5,6-diethyl-2,3-dihydro-1H-inden-2-yl)amino)-1-hydroxyethyl)-8-((3-fluorobenzyl)oxy)quinolin-2(1H)-one]
- IC50 [1, 5]: 2.73 µM
- IC50 ([2]; Homo sapiens, 48 h): 3.11 µM
- IC50 ([3]; Homo sapiens, HT-29, 48 h): 2.66 µM

Structure (SMILES): CCc1cc2c(cc1CC)CC(NC[C@H](O)c1ccc(OCc3ccc(F)cc3)c3[nH]c(=O)ccc13)C2 [Compound I2, (R)-5-(2-((5,6-diethyl-2,3-dihydro-1H-inden-2-yl)amino)-1-hydroxyethyl)-8-((4-fluorobenzyl)oxy)quinolin-2(1H)-one]
- IC50 [1, 5]: 8.62 µM
- IC50 ([2]; Homo sapiens, 48 h): 5.56 µM
- IC50 ([3]; Homo sapiens, HT-29, 48 h): 4.69 µM

Structure (SMILES): CCc1cc2c(cc1CC)CC(NC[C@@H](O)c1ccc(OCc3c(F)c(F)c(F)c(F)c3F)c3[nH]c(=O)ccc13)C2 [Compound I11, (S)-5-(2-((5,6-diethyl-2,3-dihydro-1H-inden-2-yl)amino)-1-hydroxyethyl)-8-((perfluorophenyl)methoxy)quinolin-2(1H)-one]
- IC50 [1, 5]: 6.09 µM

Structure (SMILES): CCc1cc2c(cc1CC)CC(NC[C@@H](O)c1ccc(OCc3cc(F)cc(F)c3)c3[nH]c(=O)ccc13)C2 [Compound I9, (S)-5-(2-((5,6-diethyl-2,3-dihydro-1H-inden-2-yl)amino)-1-hydroxyethyl)-8-((3,5-difluorobenzyl)oxy)quinolin-2(1H)-one]
- IC50 [1, 5]: 3.15 µM
